The assay deals with fully committed Th1 cells. As to the kind of experiment: Secondary repolarisation of sorted IFN-γ (eYFP+) Th1 cells under Th1 conditions in the presence of RAR inhibitor or vehicle. The class given is cell-based, mouse. As to conditions: IFN-γ (eYFP+) Th1 cells sorted day 7, restimulated under Th1 conditions for 5 days with LE540 (1 μM) vs vehicle (DMSO). How it is done:
Experimental conditions were as follows. Naïve CD4^+CD25^negCD44^loCD62L^hi T-cells were isolated by cell sorting by FACSAria (BD) after enrichment with a CD4^+ T-cell negative selection kit (Miltenyi Biotec). T-cell depleted splenocytes were prepared using a CD3^+ microbead selection kit (Miltenyi Biotec) followed by irradiation at 3000 rad. Naïve CD4+ T-cells were cultured for 3 days with irradiated T-cell-depleted splenocytes at a ratio of 1:5 in the presence of 5 μg/ml of anti-CD3 (145-2C11) under Th0 cell conditions (IL-2 100 IU/ml, anti-IL-4 (11B11) and anti-IFN-γ (XMG 1.2), 10 μg/ml each); Th1 cell conditions (100 IU/ml of IL-2, 10 ng/ml of IL-12, and anti-IL-4); Th2 cell conditions (100 IU/ml of IL-2, 10 ng/ml of IL-4, anti-IL-12 (C17.8), and anti-IFN-γ (XMG 1.2); or Th17 cell conditions, 5 ng/ml TGFβ, 20 ng/ml IL-6, 10 ng/ml IL-1β, anti-IL-4, and anti-IFN-γ). Cells were expanded for an additional 3-4 days. Where indicated, 10 ng/ml IFN-γ or 10 μg/ml anti-IFN-γ was added. In secondary repolarisation assays, where specified, LE540 (1 μM) or DMSO (vehicle control) was added to the media. Cytokines were from R&D. Anti-CD3 was from BioXcell and other antibodies were from BD Biosciences. All cell cultures were performed in complete RPMI containing 10% fetal bovine serum (FBS), 55 µM β-mercaptoethanol, HEPES, non-essential amino acids, glutamine, penicillin and streptomycin.
For analysis of cytokine production, cells were restimulated with 100 ng/ml phorbol 12-myristate 13-acetate (PMA) and 500 ng/ml ionomycin in the presence of monensin for 4-5 h at 37° C. in a tissue culture incubator. Cell surface staining was carried out in PBS with 2% FBS. For live cell analysis or cell sorting, dead cells were excluded by staining with SYTOX blue (Invitrogen). […] Data were collected with a LSR Fortessa (BD) and results were analyzed with FlowJo software (Tree Star). […]

Structures are written as SMILES.

As for `CN1c2cc3c(cc2N=C(c2ccc(C(=O)O)cc2)c2ccc4ccccc4c21)C(C)(C)CCC3(C)C` [LE540], the “Intracellular IFN-γ expression following PMA and ionomycin stimulation” value (FIG. 12B) is recorded as “modest reductions in IFN-γ expression”. For the same molecule, under “flow cytometry, FIG. 4B”, the “Intracellular expression of RORγt” value is listed as “emergence of cells co-expressing RORγt” and the “Intracellular expression of T-bet” value is recorded as “down-regulation of T-bet”.

The values are drawn from US20160317654A1, “COMBINATION THERAPY WITH RAR ALPHA AGONISTS FOR ENHANCING TH1 RESPONSE” (King's College London, priority 2015, published 2016).
